Measured values published in patent US3932664A, “Substituted phenoxyalkyl quaternary ammonium compounds as antiarrhythemic agents” (priority 1974, dated 1976).
Like-named read-outs stand apart in the source and are kept apart here.

Key:
[1] = tested on: ouabain-induced ventricular tachycardia in dogs; assay: conversion of ouabain-induced ventricular tachycardia to normal sinus rhythm in anesthetized dogs; format: in vivo, dog; conditions: for minimal effective dose: Canis lupus familiaris, iv, read-out: Conversion Dose
From the text: Ventricular tachycardia is produced in dogs in a method similar to the method of Lucchesi and Hardman (J. Pharmacol. Exptl. Therap., 132, 372, 1961) by the administration of ouabain. In such operations, a dog is anesthetized by the intravenous administration of pentobarbital sodium at a dosage rate of 30 milligrams per kilogram. A femoral artery is cannulated with polyethylene tubing for measurements of blood pressure. A femoral vein is similarly cannulated for administration of ouabain and administration of the test compound. Hypodermic needle electrodes are employed for recording electrocardiograms. In such operations, ouabain is administered intravenously by infusion at a constant rate via the cannulated femoral vein. The infusion rate is 35 micrograms of ouabain per kilogram of animal body weight per hour. Within 1 to 1.5 hours following the start of the infusion, a ventricular tachycardia is seen to develop.
After ventricular tachycardia is observed, a test compound is administered intravenously by administration of varying amounts of a composition comprising 50 milligrams of the test compound as a sterile solution in 10 milliliters of water containing 0.9 percent sodium chloride. Each dose is administered slowly over a period of 15 to 30 seconds. The compound is administered at an initial dosage rate of 0.25 milligram of test compound per kilogram of animal body weight. Blood pressure and electrocardiogram are observed for 5 minutes after administration. When a complete conversion from the arrhythmic condition to normal sinus rhythm is not observed within the 5 minute period, a second dose of 0.50 milligram of the test compound per kilogram is administered by a similar procedure and blood pressure and heartbeat are similarly observed for 5 minutes. When complete conversion of the ventricular tachycardia to normal sinus rhythm is not observed, the dosage is increased two-fold every five minutes until complete conversion is obtained. The animal is then observed and the duration of the period of normal cardiac rhythm produced by administration of the test compound is recorded as the duration of antiarrhythmic activity. The termination of the period of normal activity is marked by the reappearance of ventricular tachycardia or fibrillation as indicated by the electrocardiogram observations. The antiarrhythmic dosage of test compound sufficient to bring about a complete conversion of the cuabain-induced tachycardia, and the duration of the period of normal cardiac activity are set out below.
The procedure of Example 26 is repeated, employing the compound of Example 1, [ 2-(4-amino-2,6-dibromophenoxy)-ethyl]-dimethyl(2-methylallyl)ammoniumchloride, as a test compound. In these operations two groups of three dogs each are administered the test compound intravenously at anti-arrhythmic dosage rates of 1 and 2 milligrams per kilogram after ectopic ventricular rhythms have been established by continuous infusion of cuabain.

[2] = blood and heart tissue levels in mice after intravenous and oral administration; format: in vivo; conditions: mouse; for concentration at 0.5 h: oral 6 mg/kg, thirty minutes after administration
Experimental: [2-(4-amino-2,6-dibromophenoxy)ethyl]dimethyl-(allyl)ammonium bromide is administered to mice intravenously and orally. The animals are thereafter sacrificed and blood and heart tissue analyses are carried out to ascertain the concentration of test compound present. In such operations mice intravenously administered the test compound at a rate of 6 milligrams per kilogram are found to have blood levels of 27 micrograms of test compound per milliliter 10 seconds after injection, 2.1 micrograms per milliliter 3 minutes after injection. Analysis of heart tissue indicates a concentration of 5.5 micrograms of test compound per gram of tissue 10 minutes after injection. Similar analyses are carried out with animals administered 6 milligrams of test compound per kilogram orally. Thirty minutes after oral administration, blood and heart levels of 1.1 and 5.1 micrograms, respectively, of test compound per milliliter of blood or gram of heart tissue, respectively, are found.

[3] = dog, intravenous, dose giving complete conversion of ouabain-induced tachycardia to normal sinus rhythm
[4] = dog, intravenous, at conversion dose 0.5 mg/kg
[5] = dog, intravenous, at conversion dose 1 mg/kg
[6] = dog, intravenous, at conversion dose 2 mg/kg

Compound	minimal effective dose [1, 3]	Duration (period of normal cardiac rhythm) [1, 5]	further results
C#CC[N+](C)(C)CCOc1c(Br)cc(N)cc1Br.[Br-] [Example 4, [2-(4-amino-2,6-dibromo-phenoxy)ethyl]dimethyl(2-propynyl)ammonium bromide]	0.5 mg/kg		Duration (period of normal cardiac rhythm) [1, 4]: 24 min
C=CC[N+]1(CCOc2c(Br)cc(N)cc2Br)CCCCCC1 [Example 23, [2-(4-amino-2,6-dibromophenoxy)ethyl]-1-allylhexahydroazepinium bromide]	0.5 mg/kg	7.5 min	Duration (period of normal cardiac rhythm) [1, 4]: 3.3 min
Cc1ccc[n+](CCOc2c(Br)cc(N)cc2Br)c1.[Br-] [Example 24, 1-[2-(4-amino-2,6-dibromo-phenoxy)ethyl]-3-picolinium bromide]	0.5 mg/kg		Duration (period of normal cardiac rhythm) [1, 4]: 38 min
C[N+](C)(CCOc1c(Br)cc(N)cc1Br)CCc1ccccc1 [Example 9]	2 mg/kg		Duration (period of normal cardiac rhythm) [1, 6]: 3.5 min
C=CC[N+](C)(C)CCOc1c(Br)cc(N)cc1Br.CS(=O)(=O)[O-] [Example 19, [2-(4-amino-2,6-dibromophenoxy)-ethyl]dimethyl(allyl)ammonium methanesulfonate]	1 mg/kg	17.5 min	Duration (period of normal cardiac rhythm) [1, 6]: 39.0 min
C[N+](C)(CCOc1c(Br)cc(N)cc1Br)Cc1ccc(Cl)c(Cl)c1 [Example 14]	2 mg/kg		Duration (period of normal cardiac rhythm) [1, 6]: 14 min
CC(=O)C[N+](C)(C)CCOc1c(Br)cc(N)cc1Br.[Cl-] [Example 5, [2-(4-amino-2,6-dibromophenoxy)ethyl]dimethyl(acetonyl)ammonium chloride]	1 mg/kg	11 min	
C[N+](C)(CCOc1c(Br)cc(N)cc1Br)Cc1ccc(Cl)cc1 [Example 12]	1 mg/kg	9.5 min	
C[N+](C)(CC=CCl)CCOc1c(Br)cc(N)cc1Br [Example 10]	1 mg/kg	3 min	
C[N+](C)(CC#N)CCOc1c(Br)cc(N)cc1Br.O=S(=O)([O-])c1ccccc1 [Example 18, [2-(4-amino-2,6-dibromophenoxy)ethyl]dimethyl(2-nitriloethyl)-ammonium benzenesulfonate]		4 min	minimal effective dose [1]: 1 mg/kg
Br.C=CC[N+]1(CCOc2c(Br)cc(N)cc2Br)CCCC1.[Br-] [Example 21, 1-[2-(4-amino-2,6dibromophenoxy)ethyl]-1-allyl pyrrolidinium bromide hydrobromide]	2 mg/kg		Duration (period of normal cardiac rhythm) [1, 6]: 1.5 min
C=C(C)C[N+](C)(C)CCOc1c(Cl)cc(N)cc1Cl.[Cl-] [Example 15, [2-(4-amino-2,6-dichlorophenoxy)ethyl]dimethyl(2-methylallyl)-ammonium chloride]	0.5 mg/kg		Duration (period of normal cardiac rhythm) [1, 4]: 4.5 min
CCOC(=O)C[N+](C)(C)CCOc1c(Br)cc(N)cc1Br [Example 2, [2-(4-amino-2,6-dibromophenoxy)ethyl]dimethyl(ethylcarboxymethyl) ammonium bromide]	1 mg/kg	2.6 min	Duration (period of normal cardiac rhythm) [1, 6]: 3.5 min
C[N+](C)(CCOc1c(Br)cc(N)cc1Br)Cc1ccccc1Cl.[Cl-] [Example 3, [2-(4-amino-2,6-dibromophenoxy)-ethyl]dimethyl(2-chlorobenzyl)ammonium chloride]	1 mg/kg	12.5 min	
Br.C=CC[N+]1(CCOc2c(Br)cc(N)cc2Br)CCCCC1.[Br-] [Example 22, 1-[2-(4-amino-2,6-dibromophenoxy)ethyl]-1-allyl piperidinium bromide hydrobromide]	1 mg/kg	6.5 min	
C[N+](C)(CCOc1c(Br)cc(N)cc1Br)Cc1ccc(Cl)cc1Cl [Example 13]	0.5 mg/kg		Duration (period of normal cardiac rhythm) [1, 4]: 4 min
C[N+](C)(CCOc1c(Br)cc(N)cc1Br)Cc1ccccc1 [Example 11]	1 mg/kg	8.5 min	
C=CC[N+](CC)(CC)CCOc1c(Br)cc(N)cc1Br.[Br-] [Example 16, [2-(4-amino-2,6-dibromophenoxy)ethyl]diethyl(allyl)ammonium bromide]	2 mg/kg		Duration (period of normal cardiac rhythm) [1, 6]: 6.5 min
C[N+](C)(CCOc1c(Br)cc(N)cc1Br)CC(=O)c1ccc(Cl)c(Cl)c1 [Example 8]	16 mg/kg		Duration (period of normal cardiac rhythm) ([1]; dog, intravenous, at conversion dose 16 mg/kg): 10 min
C=CC[N+](C)(C)CCCCOc1c(Br)cc(N)cc1Br.[Br-] [Example 25, [4-(4-amino-2,6-dibromophenoxy)-butyl]dimethyl(allyl) ammonium bromide]	2 mg/kg		Duration (period of normal cardiac rhythm) [1, 6]: 26 min
C[N+](C)(CCO)CCOc1c(Br)cc(N)cc1Br [Example 7]	1 mg/kg	25 min	
Nc1cc(Br)c(OCC[N+]23CCC(CC2)CC3)c(Br)c1 [Example 20, [2-(4-amino-2,6-dibromophenoxy)ethyl] quinuclidinium bromide]			minimal effective dose [1]: 0.5 mg/kg; Duration (period of normal cardiac rhythm) [1, 4]: 1 min
C=CC[N+](C)(C)CCOc1c(Br)cc(N)cc1Br.[Br-] [Example 6, [2-(4-amino-2,6-dibromophenoxy)ethyl]dimethyl(allyl)ammonium bromide]	1 mg/kg	6 min	concentration at 10 s ([2]; blood, intravenous 6 mg/kg, 10 seconds after injection, read-out: blood level): 27000 ng/mL; concentration at 0.05 h ([2]; blood, intravenous 6 mg/kg, 3 minutes after injection, read-out: blood level): 2100 ng/mL; concentration at 0.5 h ([2]; blood, read-out: blood level): 1100 ng/mL; concentration at 10 min ([2]; heart, intravenous 6 mg/kg, 10 minutes after injection): 5500 ng/g; concentration at 0.5 h ([2]; heart, read-out: heart level): 5100 ng/g
C=CC[N+](C)(C)CCCOc1c(Br)cc(N)cc1Br.[Br-] [Example 17, [3-(4-amino-2,6-dibromophenoxy)propyl]dimethyl(allyl)ammonium bromide]	1 mg/kg	6 min	
